Patent US20240343733A1, “COMPOUNDS FOR TARGETING DEGRADATION OF IRAK4 PROTEINS” (BIOGEN MA INC., priority 2021, published 2024)

Target: T1, IRAK4 (Canis lupus familiaris, UniProt A0A8I3S726)
T1 sequence (A0A8I3S726 1-460): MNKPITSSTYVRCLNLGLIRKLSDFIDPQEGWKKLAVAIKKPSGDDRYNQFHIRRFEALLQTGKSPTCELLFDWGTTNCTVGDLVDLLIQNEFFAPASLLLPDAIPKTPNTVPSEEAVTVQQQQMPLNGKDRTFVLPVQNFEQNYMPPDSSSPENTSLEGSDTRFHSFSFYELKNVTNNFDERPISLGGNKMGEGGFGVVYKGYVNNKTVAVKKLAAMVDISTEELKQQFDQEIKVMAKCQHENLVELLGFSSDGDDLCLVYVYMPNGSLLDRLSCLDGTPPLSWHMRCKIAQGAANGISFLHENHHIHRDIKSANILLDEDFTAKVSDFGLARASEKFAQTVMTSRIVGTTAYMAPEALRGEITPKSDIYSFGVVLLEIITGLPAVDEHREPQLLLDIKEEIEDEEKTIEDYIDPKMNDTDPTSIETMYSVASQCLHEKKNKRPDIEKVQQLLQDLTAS
Experiment: Pharmacodynamics (PD) in Male Beagle Dogs, IRAK4 quantitation in PBMCs by nanoLC-MS/MS
Format: in vivo
Settings: male beagle dog PBMCs
Method: Assay 4. Pharmacodynamics (PD) in Male Beagle Dogs
Pharmacodynamics (PD) biomarker analyses of male beagle dog PMBCs from the whole blood timepoint samples collected in Assay 3 were performed.
For isolation of PBMCs, the whole blood timepoint samples described in Assay 3 above were processed immediately to ensure high viability of PBMCs. All the samples were processed at 18° C. to 20° C. The freshly collected whole blood (2 mL) was mixed with an equal volume of phosphate buffered saline. This mixture was inverted several times to ensure thorough mixing. The Histopaque® (Catalog no. 10771, Sigma-Aldrich, St. Louis, MO) bottle was inverted several times to ensure uniformity of the medium. A sterile syringe was used to draw 2 mL of Histopaque® medium and added to a sterile centrifuge tube. The whole blood-PBS sample (4 ml) was carefully layered on top of the Histopaque® medium, without mixing. The tube was centrifuge at 600 g for 30 to 40 min at 18° C. to 20° C. with the brakes turned off. The upper layer containing plasma and platelets was withdrawn slowly using a sterile pipette, leaving the PBMC cell layer undisturbed at the interface. The PBMC layer was transferred to a sterile centrifuge tube using a sterile pipette. The PBMCs were washed with 3 volumes (˜6 mL) of Hank's balanced salt solution (HBSS) (Gibco, Grand Island, NY) in the centrifuge tube. The cells were suspended by gently drawing them in and out of a pipette. The tubes were centrifuged at 250 g for 10 to 15 minutes at 18° C. to 20° C. and the supernatant discarded. The PBMCs were then resuspended in 6 to 8 ml of HBSS. For cell counting, the cell suspension was diluted 1:1 with Trypan Blue dye and mixed well. The cell numbers (live and dead) were counted, and cell viability calculated. The cell numbers and cell viability of each PBMC sample were recorded. The tube was centrifuged again at 500 g for 10 min at 18° C. to 20° C. The supernatant was removed, and the cell pellet was frozen at −80° C.
The frozen dog PBMC cell pellets were homogenized in two pellet volumes of lysis buffer (100 mM triethylammonium bicarbonate (TEAB), 4% SDS, 1× Roche protease inhibitor cocktail) by sonicating at 150 watt for 10 seconds in a 4° C. water bath using an E220 focused-ultrasonicator (Covaris, Woburn, MA, USA). Lysates were then clarified by centrifugation at 18,000 g for 20 minutes at 4° C. and protein concentrations were determined by bicinchoninic acid (BCA) assay (ThermoFisher Scientific, Waltham, MA, USA).
For protein digestion, an equal amount of protein was taken from each sample. Proteins were reduced with 10 mM DTT for 10 minutes at 70° C. and alkylated with 25 mM iodoacetamide for 30 minutes in the dark. Tryptic digestion was performed with S-Trap™ method (Protifi, Farmingdale, NY, USA) overnight at 37° C. In brief, samples were mixed with 90% MeOH in 100 mM TEAB containing 10% (w/w) trypsin and loaded onto an in-house packed S-Trap microcolumns. Samples were washed with 90% MeOH in 100 mM TEAB, and digested in 100 mM TEAB for 16 hours at 37° C. The resulting peptides were spiked with five heavy-labeled IRAK4 peptides (Vivitide, LLC, Gardner, MA, USA) at 2 fmol each (column loading), desalted using C18 StageTip, SpeedVac dried, and kept at −80 C until nanoLC-MS/MS analysis.
Peptide analysis was performed on a nanoLC-MS/MS platform composed of a Q Exactive HF mass spectrometer coupled to an EASY-nLC 1200 (ThermoFisher Scientific). Peptides were separated on an EASY-Spray™ C18 column (50 cm×75 am, 2 am) (ThermoFisher Scientific) at 50° C. Mobile phases were 0.1% formic acid in water (A) and 80% acetonitrile, 0.1% formic acid (B). Peptides were eluted with a 100-min method over an effective 80 min gradient from […] to 45% B at a flow rate of 275 nL/min. Peptides were ionized with a spray voltage of 1,800 V. Mass spectrometric data were acquired at parallel reaction monitoring (PRM) mode including five pairs of light and heavy IRAK4 peptides (Table 7 below). […]

Structure (SMILES)	IRAK4 change from vehicle (time 0 h)	IRAK4 change from vehicle (time 2 h) [%]	IRAK4 change from vehicle (time 24 h) [%]	IRAK4 change from vehicle (time 48 h) [%]	IRAK4 change from vehicle (time 96 h) [%]
CC(C)Oc1cc2nc([C@H]3CC[C@H](CN4CCC(c5ccc6c(c5)n(C)c(=O)n6C5CCC(=O)NC5=O)CC4)CC3)cn2cc1C(=O)Nc1cnn2cccnc12 (stereo partly shown) [Compound 48, 2-[4-[[4-[1-(2,6-dioxo-3-piperidyl)-3-methyl-2-oxo-benzimidazol-5-yl]-1-piperidyl]methyl]cyclohexyl]-7-isopropoxy-N-pyrazolo[1,5-a]pyrimidin-3-yl-imidazo[1,2-a]pyridine-6-carboxamide]	+12%	−51	−97	−95	−95
CC(C)Oc1cc2nc([C@H]3CC[C@H](CN4CCC(c5ccc6c(c5)n(C)c(=O)n6C5CCC(=O)NC5=O)CC4)CC3)cn2cc1C(=O)Nc1cccn([C@H]2C[C@H]2F)c1=O (stereo partly drawn) [Compound 169, 2-((1R,4S)-4-((4-(1-(2,6-dioxopiperidin-3-yl)-3-methyl-2-oxo-2,3-dihydro-1H-benzo[d]imidazol-5-yl)piperidin-1-yl)methyl)cyclohexyl)-N-(1-((1S,2R)-2-fluorocyclopropyl)-2-oxo-1,2-dihydropyridin-3-yl)-7-isopropoxyimidazo[1,2-a]pyridine-6-carboxamide]	−11%	−57	−97	−96	−95
